Laboratory results reported in US9556159B2, “Renin inhibitor” (MITSUBISHI TANABE PHARMA CORPORATION, priority 2012, dated 2017).

Target: T1, Recombinant human renin (Homo sapiens, UniProt P00797)
T1 sequence (P00797 67-406): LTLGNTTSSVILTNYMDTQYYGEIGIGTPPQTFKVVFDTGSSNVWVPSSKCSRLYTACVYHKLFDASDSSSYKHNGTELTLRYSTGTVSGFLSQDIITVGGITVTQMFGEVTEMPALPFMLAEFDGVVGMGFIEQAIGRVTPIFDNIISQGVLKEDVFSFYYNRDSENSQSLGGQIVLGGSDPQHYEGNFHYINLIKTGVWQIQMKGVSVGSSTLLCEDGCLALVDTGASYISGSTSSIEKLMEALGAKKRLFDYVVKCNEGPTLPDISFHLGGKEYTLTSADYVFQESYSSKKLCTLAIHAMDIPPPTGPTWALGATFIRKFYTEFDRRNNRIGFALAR
Experiment: Inhibitory activity against human renin (fluorogenic peptide substrate)
Assay type: biochemical
Settings: 37° C. for 1 hour, read-out: IC50

| IC50 [nM] | Compound |
| --- | --- |
| 0.6 | COC(=O)NCCCc1cc([C@@H](C)N(C(=O)[C@H]2CNC[C@@H](C(=O)OC)O2)C2CC2)sc1-c1ccccc1 [Example 3, methyl (2S,6R)-6-{cyclopropyl[(1R)-1-(4-{3-[(methoxycarbonyl)amino]propyl}-5-phenylthiophen-2-yl)ethyl]carbamoyl}morpholine-2-carboxylate] |
| 5.3 | COCCCc1cn(C)c2cnc([C@@H](C)N(C(=O)[C@H]3CNCCO3)C3CC3)cc12 [Example 33] |
| 4.4 | CC(=O)NCCn1nc(C)c2ccc([C@@H](C)N(C(=O)[C@H]3CNCCO3)C3CC3)cc21 [Example 8] |
| 3 | COCCCn1nc(C)c2ccc([C@@H](C)N(C(=O)[C@H]3CNCCO3)C3CC3)nc21 [Example 44] |
| 7.2 | COCc1ccc([C@@H](C)N(C(=O)[C@H]2CNCCO2)C2CC2)cc1OCCNC(=O)OC [Example 95] |
| 6.3 | COCCCCc1cc(C(C)N(C(=O)[C@H]2CNCCO2)C2CC2)cnc1OC (stereo partly shown) [Example 25] |

Same assay, conditions: 50% inhibitory concentration (IC50) against human renin, 37° C. for 1 hour

| IC50 [nM] | Compound |
| --- | --- |
| 0.5 | COC(=O)NCCCc1cc([C@@H](C)N(C(=O)[C@H]2CNCCO2)C2CC2)sc1-c1ccccc1-c1n[nH]c(=O)o1 [Example 276] |
| 1 | COC(=O)NCCCc1c(F)c([C@@H](C)N(C(=O)[C@H]2CNCCO2)C2CC2)nn1-c1ccccc1 [Example 244] |
| 0.4 | COC(=O)NCCCn1nc([C@@H](C)N(C(=O)[C@H]2CNCCO2)C2CC2)c(C)c1-c1ccccn1 [Example 220] |
| 8.4 | COC(=O)NCCCc1sc([C@@H](C)N(C(=O)[C@H]2CN[C@@H](C)CO2)C2CC2)nc1-c1cccc(Cl)c1 [Example 368] |
| 1.4 | COC(=O)NCCCc1cc([C@@H](C)N(C(=O)[C@H]2CNCCO2)C2CC2)cnc1-c1ccccc1 [Example 128] |
| 0.6 | COC[C@@H]1CNC[C@H](C(=O)N(C2CC2)[C@H](C)c2cc(CCCNC(=O)OC)n(C(C)C)n2)O1 [Example 301] |
| 0.4 | COC(=O)NCCCn1nc([C@H](C)N(C(=O)[C@H]2CNCCO2)C2CC2)cc1OC(C)C [Example 326] |
| 4.1 | COC(=O)NCCCc1cc([C@@H](C)N(C(=O)[C@H]2CNCCO2)C2CC2)nc2ccoc12 [Example 167] |
| 3.1 | COC(=O)NCCCn1nc([C@@H](C)N(C(=O)[C@H]2CNC[C@@H](C(F)(F)F)O2)C2CC2)c2ccc(C)nc21 [Example 239] |
| 0.5 | COC(=O)NCCCc1cc([C@@H](C)N(C(=O)[C@H]2CNCCO2)C2CC2)sc1-c1ccccc1C(=O)OC [Example 268] |
| 0.3 | COC(=O)NCCCc1cc([C@@H](C)N(C(=O)[C@H]2CNCCO2)C2CC2)nn1-c1ccccc1 [Example 183] |
| 0.8 | COCCCCc1cc([C@@H](C)N(C(=O)[C@H]2CNCCO2)C2CC2)nc2c1CCCC2 [Example 123] |
| 3 | COC[C@H]1CO[C@@H](C(=O)N(C2CC2)[C@H](C)c2cc(CCCNC(=O)OC)nc(OC)c2)CN1 [Example 271] |
| 3.2 | COC(=O)NCCCn1nc([C@@H](C)N(C(=O)[C@H]2CN[C@@H](CO)CO2)C2CC2)c2ccc(C)nc21 [Example 258] |
| 0.8 | CCc1cc([C@H](C)N(C(=O)[C@H]2CNC[C@@H](COC)O2)C2CC2)cc(CCCNC(=O)OC)n1 [Example 329] |
| 1.5 | COC(=O)NCCCc1cc([C@@H](C)N(C(=O)[C@H]2CNC[C@@H](CF)O2)C2CC2)nn1-c1ccccc1 [Example 369] |
| 0.7 | CCc1nc([C@@H](C)N(C(=O)[C@H]2CNC[C@@H](C)O2)C2CC2)cc2c1ncn2CCCOC [Example 392] |
| 8.8 | COC(=O)NCCCc1cc(C(C)N(C(=O)[C@H]2CNCCO2)C2CC2)sc1-c1ccc(N)nc1 (stereo partly shown) [Example 425] |
| 1.1 | COC(=O)NCCCc1nc([C@@H](C)N(C(=O)[C@H]2CNCCO2)C2CC2)sc1-c1ccccc1 [Example 218] |
| 1.2 | COC[C@@H]1CNC[C@H](C(=O)N(C2CC2)[C@@H](C)c2nn(CCCNC(=O)OC)c(-c3ccccn3)c2C)O1 [Example 337] |

| IC50 [nM] | Compound |
| --- | --- |
| 3.1 | COC(=O)NCCCn1nc([C@@H](C)N(C(=O)[C@H]2CNC[C@@H](C(=O)N(C)C)O2)C2CC2)c2ccc(C)nc21 [Example 256] |
| 0.7 | CCc1nc([C@@H](C)N(C(=O)[C@H]2CNC[C@@H](COC)O2)C2CC2)cc2c1ccn2CCCOC [Example 196] |
| 1 | COC(=O)NCCN1CC(C)(C)c2ccc([C@@H](C)N(C(=O)[C@H]3CNCCO3)C3CC3)cc21 [Example 151] |
| 0.5 | COC(=O)NCCCn1cc([C@@H](C)N(C(=O)[C@H]2CNC[C@@H](C)O2)C2CC2)nc1-c1ccccc1 [Example 230] |
| 1.7 | COC(=O)NCCCc1nc([C@@H](C)N(C(=O)[C@H]2CNCCO2)C2CC2)sc1-c1ccnc(C)c1 [Example 407] |
| 0.5 | COC(=O)NCCCc1cc([C@H](C)N(C(=O)[C@H]2CNC[C@@H](CF)O2)C2CC2)cc(OC)n1 [Example 314] |
| 3.8 | COC(=O)NCCCc1sc([C@H](C)N(C(=O)[C@H]2CNCCO2)C2CC2)cc1-c1cnc(N)nc1 [Example 431] |
| 6 | CCc1ncc([C@@H](C)N(C(=O)[C@H]2CNCCO2)C2CC2)cc1CCCCOC [Example 126] |
| 4.7 | COC(=O)NCCCc1nc([C@@H](C)N(C(=O)[C@H]2CNC[C@@H](C)O2)C2CC2)sc1-c1cccc(Cl)c1 [Example 376] |
| 0.7 | COC(=O)NCCCn1cc([C@@H](C)N(C(=O)[C@H]2CNCCO2)C2CC2)nc1C(C)C [Example 181] |
| 2.2 | COCCCn1cc(COC)c2c(C(C)C)nc([C@@H](C)N(C(=O)[C@H]3CNCCO3)C3CC3)cc21 [Example 153] |
| 0.5 | COC[C@H]1CO[C@@H](C(=O)N(C2CC2)[C@H](C)c2cn(CCCNC(=O)OC)c(C3CCCCC3)n2)CN1 [Example 289] |
| 0.7 | COC(=O)NCCCc1cc([C@@H](C)N(C(=O)[C@H]2CNCCO2)C2CC2)nc2ccc(C)cc12 [Example 144] |
| 1.6 | COC(=O)NCCCc1cc([C@@H](C)N(C(=O)[C@H]2CN[C@@H](CC(F)F)CO2)C2CC2)cc(OC)n1 [Example 306] |
| 0.3 | COC(=O)NCCCn1cc([C@@H](C)N(C(=O)[C@H]2CNCCO2)C2CC2)nc1-c1ccccc1C [Example 179] |
| 0.6 | COC[C@@H]1CNC[C@H](C(=O)N(C2CC2)[C@H](C)c2cc(CCCNC(=O)OC)n(-c3ccccc3)n2)O1 [Example 285] |
| 1 | CCOC[C@H]1CO[C@@H](C(=O)N(C2CC2)[C@H](C)c2nn(CCCNC(=O)OC)c3nc(C)ccc23)CN1 [Example 273] |
| 7.1 | COC[C@H]1CO[C@@H](C(=O)N(C2CC2)[C@@H](C)c2cnc(OC)c(CCCNC(=O)OC)c2)CN1 [Example 309] |
| 0.3 | COC(=O)NCCCn1cc([C@@H](C)N(C(=O)[C@H]2CNC[C@@H](C)O2)C2CC2)nc1C(C)C [Example 245] |
| 3 | COC(=O)NCCCc1nc([C@@H](C)N(C(=O)[C@H]2CNCCO2)C2CC2)sc1-c1cncnc1 [Example 416] |

| IC50 [nM] | Compound |
| --- | --- |
| 2.9 | COC[C@H]1CO[C@@H](C(=O)N(C2CC2)[C@@H](C)c2nn(CCCNC(=O)OC)c(C3CCOCC3)c2C)CN1 [Example 327] |
| 1.2 | COC(=O)NCCCn1nc([C@@H](C)N(C(=O)[C@H]2CNCCO2)C2CC2)c2c1CCC2 [Example 190] |
| 3.3 | COC(=O)NCCCc1sc([C@@H](C)N(C(=O)[C@H]2CNCCO2)C2CC2)cc1-c1cnc(N)nc1 [Example 432] |
| 0.4 | COC[C@@H]1CNC[C@H](C(=O)N(C2CC2)[C@H](C)c2cn(CCCNC(=O)OC)c3ncccc23)O1 [Example 292] |
| 4 | CCc1cc(CCCNC(=O)OC)nc([C@@H](C)N(C(=O)[C@H]2CNCCO2)C2CC2)n1 [Example 399] |
| 5.1 | CCOc1ncc(C(C)N(C(=O)[C@H]2CNC[C@@H](COC)O2)C2CC2)nc1CCCNC(=O)OC (stereo partly shown) [Example 398] |
| 0.3 | COC(=O)NCCCc1cc([C@@H](C)N(C(=O)[C@H]2CNCCO2)C2CC2)sc1-c1cccc(C)n1 [Example 226] |
| 5 | COC(=O)NCCCc1nc([C@@H](C)N(C(=O)[C@H]2CNCCO2)C2CC2)cnc1O[C@H]1CCOC1 [Example 424] |
| 2.2 | COC(=O)NCCCc1nc([C@@H](C)N(C(=O)[C@H]2CNCCO2)C2CC2)sc1-c1cn[nH]c1 [Example 421] |
| 1.1 | COC(=O)NCCCn1cc([C@@H](C)N(C(=O)[C@H]2CNCCO2)C2CC2)c2ncc(Br)cc21 [Example 114] |
| 0.7 | CCOC[C@@H]1CNC[C@H](C(=O)N(C2CC2)[C@@H](C)c2nn(CCCNC(=O)OC)c3nc(C)ccc23)O1 [Example 312] |
| 0.7 | COC(=O)NCCCn1nc([C@@H](C)N(C(=O)[C@H]2CNCCO2)C2CC2)cc1C(C)(C)C [Example 191] |
| 0.4 | COC(=O)NCCCc1cc([C@@H](C)N(C(=O)[C@H]2CNC[C@@H](C)O2)C2CC2)nn1-c1ccc(F)cc1 [Example 351] |
| 0.2 | COC(=O)NCCCc1cc([C@@H](C)N(C(=O)[C@H]2CNCCO2)C2CC2)sc1-c1ncccc1C [Example 236] |
| 3.5 | COC(=O)NCCCn1nc([C@@H](C)N(C(=O)[C@H]2CNC[C@@H](C)O2)C2CC2)cc1C(C)(C)c1ccccc1 [Example 390] |
| 0.9 | COC(=O)NCCCn1cc([C@@H](C)N(C(=O)[C@H]2CN[C@@H](COCc3ccccc3)CO2)C2CC2)nc1C1CCOCC1 [Example 299] |
| 0.3 | COC(=O)NCCCc1cc([C@H](C)N(C(=O)[C@H]2CNC[C@@H](COc3ccccc3)O2)C2CC2)nn1C1CCOCC1 [Example 334] |
| 1.1 | COC(=O)NCCCc1cc([C@@H](C)N(C(=O)[C@H]2CNC[C@@H](C)O2)C2CC2)nn1-c1cccc(C(F)(F)F)c1 [Example 349] |
